Experimental data from US20220408731A1, “MODIFIED ANTIMICROBIAL PEPTIDES” (priority 2021, published 2022).
≈ marks a conversion by molar mass, not a printed value. Where two headings read alike, the source gives them in different places. Peptide text beside a SMILES is read from it.

How the values were obtained:
Fusarium (F. oxysporum) = experiment: Antifungal MIC, CLSI M27/M38, half-strength potato dextrose broth; format: cell-based
Protocol: (§1) Testing for antifungal activity used half-strength potato dextrose broth for peptides and RPMI for comparator antifungals fluconazole and voriconazole. CLSI M27 and M38 methodologies used for to measure MICs. Minimal Inhibitory Concentration (MIC) is the concentration of the compound, protein, or peptide at which there is no significant growth of the microorganism relative to the growth of the microorganism in growth medium lacking the compound, protein, or peptide.
(§2) […] The concentration range for peptides in potato dextrose broth was 0.06-2 mcg/ml, the concentration range for fluconazole was 0.125-64 mcg/ml, and the concentration range for voriconazole was 0.03-16 mcg/ml. MICs were determined at 24-72 hours.

P. variotii = experiment: as above; format: cell-based; details: P. variotii MYA-363; 24-72 hours
Protocol: as §1, §2

Candida albicans = experiment: as above; format: cell-based
Protocol: as §1, §2

Candida auris = experiment: as above; format: cell-based
Protocol: as §1, §2

Fusarium (F. solani) = experiment: as above; format: cell-based; details: Fusarium F4 (F. solani)
Protocol: as §1, §2

Aspergillus fumigatus = experiment: as above; format: cell-based
Protocol: as §1, §2

C. krusei = experiment: as above; format: cell-based; details: C. krusei ATCC 6258; 24-72 hours
Protocol: as §1, §2

C. parapsilosis = experiment: as above; format: cell-based, Candida parapsilosis; details: C. parapsilosis ATCC 22019; 24-72 hours
Protocol: as §1, §2

Coccidioides sp. = format: cell-based

SMILES	MIC (μM) Botrytis cinerea (Botrytis cinerea)	MIC Values (μM) against B. cinerea (Botrytis cinerea)	SFM + 2 mM CaCl2 MIC (Botrytis cinerea)	SFM + 100 mM KCl MIC (Botrytis cinerea)	SFM + 100 mM NaCl MIC (Botrytis cinerea)	SFM MIC (Botrytis cinerea)	MIC 100% (Fusarium (F. oxysporum); Fusarium F1 (F. oxysporum))	MIC 100% (Fusarium (F. oxysporum); Fusarium F2 (F. oxysporum))	MIC 100% (P. variotii)	MIC 100% (Candida albicans; Candida albicans ATCC 90028)	MIC 100% (Candida albicans; Candida albicans CA3)	MIC 100% (Candida albicans; Candida albicans SC5314)	MIC 100% (Candida auris; Candida auris DI17-46)	MIC 100% (Candida auris; Candida auris DI17-47)	MIC 100% (Candida auris; Candida auris DI17-48)	MIC 100% (Fusarium (F. solani))	MIC 100% (Aspergillus fumigatus; Aspergillus fumigatus AF293)	MIC 100% (Aspergillus fumigatus; Aspergillus fumigatus DI15-106)	MIC 100% (Aspergillus fumigatus; Aspergillus fumigatus DI15-116)	MIC 100% (C. krusei)	further results
C[C@@H](O)[C@H](NC(=O)[C@H](CS)NC(=O)[C@H](Cc1ccccc1)NC(=O)[C@H](CS)NC(=O)[C@H](CCCNC(=N)N)NC(=O)[C@H](CCCNC(=N)N)NC(=O)[C@H](CCCNC(=N)N)NC(=O)[C@H](Cc1ccccc1)NC(=O)CNC(=O)[C@H](CCCNC(=N)N)NC(=O)[C@H](CS)NC(=O)[C@H](CCCNC(=N)N)NC(=O)CN)C(=O)N[C@H](C(=O)N[C@@H](Cc1c[nH]cn1)C(=O)N[C@@H](CS)C(=O)O)[C@@H](C)O [GMA4AC, reference compound] (H-GRCRGFRRRCFCTTHC-OH; N-terminus assumed)	6 µM (≈ 11.8 µg/mL)																				MIC (μM) Fusarium graminearum (Fusarium graminearum): 6 µM (≈ 11.8 µg/mL)
CC[C@H](C)[C@H](NC(=O)[C@H](CCCNC(=N)N)NC(=O)[C@@H](NC(=O)[C@H](CS)NC(=O)[C@H](Cc1ccccc1)NC(=O)[C@H](CS)NC(=O)[C@H](CCCNC(=N)N)NC(=O)[C@H](CCCNC(=N)N)NC(=O)[C@H](CCCNC(=N)N)NC(=O)[C@H](Cc1ccccc1)NC(=O)CNC(=O)[C@H](CCCNC(=N)N)NC(=O)[C@H](CS)NC(=O)[C@H](CCCNC(=N)N)NC(=O)CNC(=O)CN)[C@@H](C)O)C(=O)N[C@@H](CS)C(N)=O [GMA4C_V2A] (H-GGRCRGFRRRCFCTRIC-NH2; N-terminus assumed)	6 µM (≈ 12.3 µg/mL)	3 µM (≈ 6.14 µg/mL)	>6 µM	6 µM	3 µM	6 µM	8 µg/mL (≈ 3.91 µM)	16 µg/mL (≈ 7.82 µM)	8 µg/mL (≈ 3.91 µM)	16 µg/mL (≈ 7.82 µM)	16 µg/mL (≈ 7.82 µM)	16 µg/mL (≈ 7.82 µM)	16 µg/mL (≈ 7.82 µM)	16 µg/mL (≈ 7.82 µM)	16 µg/mL (≈ 7.82 µM)	8 µg/mL (≈ 3.91 µM)	32 µg/mL (≈ 15.6 µM)	>32 µg/mL	>32 µg/mL	16 µg/mL (≈ 7.82 µM)	B. cinerea MIC (Botrytis cinerea): 3 µM; MIC 100% (C. parapsilosis): 8 µg/mL (≈ 3.91 µM); MIC 100% (Coccidioides sp.; Coccidioides sp. Cocci1): 8 µg/mL (≈ 3.91 µM); MIC 100% (Coccidioides sp.; Coccidioides sp. Cocci2): 16 µg/mL (≈ 7.82 µM); MIC 100% (Coccidioides sp.; Coccidioides sp. DI17-143): 16 µg/mL (≈ 7.82 µM)
N=C(N)NCCC[C@H](NC(=O)CNC(=O)[C@@H](N)Cc1ccccc1)C(=O)N[C@@H](CS)C(=O)N[C@@H](CCCNC(=N)N)C(=O)NCC(=O)N[C@@H](Cc1ccccc1)C(=O)N[C@@H](CCCNC(=N)N)C(=O)N[C@@H](CCCNC(=N)N)C(=O)N[C@@H](CCCNC(=N)N)C(=O)N[C@@H](CS)C(=O)N[C@@H](Cc1ccccc1)C(=O)N[C@@H](CS)C(=O)N[C@@H](Cc1c[nH]c2ccccc12)C(=O)N[C@@H](CCCNC(=N)N)C(=O)N[C@@H](Cc1c[nH]c2ccccc12)C(=O)N[C@@H](CS)C(N)=O [GMA4C_V4A] (H-FGRCRGFRRRCFCWRWC-NH2; N-terminus assumed)	1.5 µM (≈ 3.44 µg/mL)	1.5 µM (≈ 3.44 µg/mL)	3 to 6 µM	1.5 µM	1.5 µM	1.5 to 3 µM	8 µg/mL (≈ 3.49 µM)	8 µg/mL (≈ 3.49 µM)	8 µg/mL (≈ 3.49 µM)	8 µg/mL (≈ 3.49 µM)	8 µg/mL (≈ 3.49 µM)	8 µg/mL (≈ 3.49 µM)	8 µg/mL (≈ 3.49 µM)	8 µg/mL (≈ 3.49 µM)	8 µg/mL (≈ 3.49 µM)	8 µg/mL (≈ 3.49 µM)	16 µg/mL (≈ 6.97 µM)	16 µg/mL (≈ 6.97 µM)	32 µg/mL (≈ 13.9 µM)	8 µg/mL (≈ 3.49 µM)	Fungal growth inhibition in presence of 2 mM CaCl2 (Botrytis cinerea): inhibit fungal growth; Potency relative to GMA4C_AC in presence of cations (Botrytis cinerea): 2 fold; MIC 100% (C. parapsilosis): 8 µg/mL (≈ 3.49 µM); MIC 100% (Coccidioides sp.; Coccidioides sp. Cocci1): 4 µg/mL (≈ 1.74 µM); MIC 100% (Coccidioides sp.; Coccidioides sp. Cocci2): 16 µg/mL (≈ 6.97 µM); MIC 100% (Coccidioides sp.; Coccidioides sp. DI17-143): 16 µg/mL (≈ 6.97 µM)
